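Grown in 96-well plates, cells were treated for 48 hours with each compound at five concentrations. Insufficient inhibition: endpoint recorded as highest concentration tested. TGI marks complete inhibition of growth.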

The values below come from PubChem BioAssay (NCI).

Some test systems named below: RPMI-8226 leukemia; 786-0 renal; UACC-62 melanoma; HOP-92 NSCLC; SN12C renal; SK-MEL-28 melanoma; HCC-2998 colon; OVCAR-8 ovarian.
Test in all cases: DTP human tumour cell line panel, 48 h

`COc1cc(/C=N\N(C)C)cc(/C=N/N(C)C)c1O`: the TGI (in general, the concentration at which net growth stops) is 50.2 µM in the experiment with RPMI-8226 leukemia; 74.1 µM in the experiment with 786-0 renal; above 100 µM in the experiment on UACC-62 melanoma; 61.8 µM in the experiment with HOP-92 NSCLC; 52.7 µM with SN12C renal; 59.7 µM in the experiment with SK-MEL-28 melanoma.

In the case of `COC(=O)c1cc(C)ccc1C1CN=NC12Cc1ccc(C)cc1C2=O` (centres undefined), the TGI in the experiment with HCC-2998 colon was above 100 µM; in the experiment on 786-0 renal, above 100 µM; with UACC-62 melanoma, above 100 µM; in the experiment with HOP-92 NSCLC, 66.5 µM; in the experiment with OVCAR-8 ovarian it was above 100 µM; with SN12C renal, above 100 µM. Moreover, the TGI in the experiment on SK-MEL-28 melanoma is above 100 µM.

Regarding `COc1ccccc1NC(=S)Nc1cc(C)cc(C)n1`, the total growth inhibition concentration (TGI) in the experiment with RPMI-8226 leukemia, with HCC-2998 colon, in the experiment on 786-0 renal, in the experiment on UACC-62 melanoma, with OVCAR-8 ovarian and with SN12C renal was above 100 µM each time. This compound came in with a TGI in the experiment on SK-MEL-28 melanoma above 100 µM.

In the case of `Cc1ccc([N+](=O)[O-])cc1S(=O)(=O)Nc1ccc(C2=NN(c3ccc([N+](=O)[O-])cc3[N+](=O)[O-])C(c3cccs3)C2)cc1` (centres undefined), the TGI in the experiment on RPMI-8226 leukemia is 60.5 µM; with 786-0 renal it was 38.6 µM; in the experiment with HOP-92 NSCLC it was 84.6 µM; in the experiment with OVCAR-8 ovarian it was 92.1 µM; with SN12C renal, 34.1 µM; in the experiment on SK-MEL-28 melanoma, above 100 µM.

With `CC(=O)c1sc2c(c1OC(=O)c1ccco1)c(=O)n(-c1ccccc1)c(=S)n2-c1ccccc1`, the concentration for total growth inhibition (TGI) is 41.6 µM in the experiment with RPMI-8226 leukemia; above 100 µM with 786-0 renal; 22 µM with HOP-92 NSCLC; above 100 µM in the experiment with OVCAR-8 ovarian; above 100 µM in the experiment on SN12C renal; 61.9 µM with SK-MEL-28 melanoma.

For `CC(C)(C)/C(=N\Nc1nc2ccccc2[nH]1)c1ccccn1`, the TGI is 35.4 µM in the experiment with RPMI-8226 leukemia; above 100 µM in the experiment on 786-0 renal; above 100 µM in the experiment with UACC-62 melanoma; above 100 µM with HOP-92 NSCLC; above 100 µM in the experiment with OVCAR-8 ovarian; above 100 µM in the experiment on SN12C renal. In the experiment with SK-MEL-28 melanoma, this compound displayed a TGI above 100 µM.

Turning to `OC1(c2ccccc2)C2CCN(CC2)C1CN1CCOCC1` (centres undefined), the total growth inhibition concentration (TGI) in the experiment on RPMI-8226 leukemia, in the experiment with HCC-2998 colon, in the experiment on 786-0 renal, in the experiment with UACC-62 melanoma, with OVCAR-8 ovarian and with SN12C renal was above 100 µM in each case. The same compound yielded a TGI in the experiment on SK-MEL-28 melanoma above 100 µM.

With `COc1ccc(/C=C2\CCC(C)C3C2=NN(c2ccccc2)C3c2ccc(OC)c(OC)c2)cc1OC` (centres undefined), the total growth inhibition concentration (TGI) in the experiment on RPMI-8226 leukemia is 4.3 µM; in the experiment on 786-0 renal, 14.5 µM; in the experiment with UACC-62 melanoma, 12.2 µM; with OVCAR-8 ovarian it was 25.3 µM; in the experiment on SN12C renal, 17.6 µM; in the experiment with SK-MEL-28 melanoma, 31.6 µM.

Take `c1ccc2c(c1)CC1=C(O2)c2ccccc2OC1`: the TGI in the experiment with RPMI-8226 leukemia is 67.3 µM; in the experiment on HCC-2998 colon it was 42.2 µM; with 786-0 renal, 32.6 µM; in the experiment with UACC-62 melanoma it was 92.8 µM; in the experiment with HOP-92 NSCLC, 95 µM; with OVCAR-8 ovarian, above 100 µM. This compound showed a TGI with SN12C renal of 37.4 µM.

For `O=c1cc(N2CCNCC2)nc2ccccn12`, the TGI in the experiment with RPMI-8226 leukemia, in the experiment with HCC-2998 colon, in the experiment on 786-0 renal, with UACC-62 melanoma, with HOP-92 NSCLC and in the experiment on OVCAR-8 ovarian was above 100 µM in each case. In the experiment on SN12C renal, this compound registered a TGI above 100 µM.

As to `N#CC12CNCC1CN=N2` (centres undefined), the TGI in the experiment on HCC-2998 colon, in the experiment with 786-0 renal, with UACC-62 melanoma, with HOP-92 NSCLC, with OVCAR-8 ovarian and in the experiment with SN12C renal was above 100 µM each time. Further, the total growth inhibition concentration (TGI) with SK-MEL-28 melanoma was above 100 µM.

Consider `Cc1c(C)c(C)n(C2OC(CO)C(O)C(O)C2O)c(=S)c1C#N` (centres undefined), for which the TGI in the experiment with HCC-2998 colon, in the experiment on 786-0 renal, with UACC-62 melanoma, in the experiment on HOP-92 NSCLC, in the experiment with OVCAR-8 ovarian and with SN12C renal was above 100 µM each time. Also, the TGI in the experiment on SK-MEL-28 melanoma is above 100 µM.

As to `O=C1CSSCC(=O)Nc2ccccc2N1`, the TGI in the experiment on RPMI-8226 leukemia, with 786-0 renal, with UACC-62 melanoma, in the experiment with HOP-92 NSCLC, in the experiment on OVCAR-8 ovarian and in the experiment on SN12C renal was above 100 µM each time. In the experiment on SK-MEL-28 melanoma, this compound returned a TGI above 100 µM.

As to `OC1(c2ccc(Cl)cc2)C(N2CCCC2)c2ccccc2C2=NCCN21` (centres undefined), the TGI is 32.1 µM in the experiment on RPMI-8226 leukemia; above 100 µM in the experiment with 786-0 renal; 41.3 µM in the experiment on UACC-62 melanoma; 62.9 µM with HOP-92 NSCLC; 58.8 µM in the experiment with OVCAR-8 ovarian; above 100 µM in the experiment with SN12C renal. In the experiment with SK-MEL-28 melanoma, the total growth inhibition concentration (TGI) worked out at 31.9 µM.

For the compound `CCOC(=O)N(NC(=O)NC(C)C)c1ccccc1`, the concentration for total growth inhibition (TGI) in the experiment with HCC-2998 colon, in the experiment with 786-0 renal, in the experiment with UACC-62 melanoma, in the experiment with HOP-92 NSCLC, in the experiment on OVCAR-8 ovarian and in the experiment with SN12C renal was above 100 µM throughout. Further, the TGI with SK-MEL-28 melanoma was above 100 µM.

`O=C1N=C(SC2OC(CO)C(O)C(O)C2O)S/C1=C\c1ccccc1` (centres undefined): the TGI with RPMI-8226 leukemia, in the experiment with HCC-2998 colon, in the experiment on 786-0 renal, in the experiment on UACC-62 melanoma, with OVCAR-8 ovarian and in the experiment with SN12C renal was above 100 µM in each case. In the experiment on SK-MEL-28 melanoma, this compound had a TGI above 100 µM.

Turning to `Cc1cc(C)c2c(O)c(S(=O)(=O)c3ccc(Cl)cc3)c(=O)oc2c1`, the TGI in the experiment on RPMI-8226 leukemia, in the experiment on 786-0 renal, in the experiment on UACC-62 melanoma, with HOP-92 NSCLC, in the experiment with OVCAR-8 ovarian and in the experiment with SN12C renal was above 100 µM each time. In the experiment on SK-MEL-28 melanoma, this compound yielded a TGI above 100 µM.

Consider `CN(CCC(=O)O)C1=Nc2ccc(Cl)cc2C(c2ccccc2)=[N+]([O-])C1`, for which the TGI in the experiment with RPMI-8226 leukemia, in the experiment with 786-0 renal, with UACC-62 melanoma, in the experiment with HOP-92 NSCLC, in the experiment on OVCAR-8 ovarian and in the experiment with SN12C renal was above 100 µM in each case. Besides, the TGI in the experiment on SK-MEL-28 melanoma is above 100 µM.

As for `O=c1c2ccccc2[nH]c2c(Cl)cc(Cl)c(NC3CCCCC3)c12`, the TGI with RPMI-8226 leukemia is 85 µM; with HCC-2998 colon, 89.9 µM; in the experiment on 786-0 renal it was above 100 µM; in the experiment with UACC-62 melanoma, 36.6 µM; in the experiment on OVCAR-8 ovarian, 44.8 µM; with SN12C renal, 55.3 µM. The compound also had a concentration for total growth inhibition (TGI) in the experiment with SK-MEL-28 melanoma above 100 µM.

Turning to `CCOCc1c(C)cc(C)c(C2C(C(=O)c3ccccc3)N3c4ccccc4C=CC3C2(C#N)C(=O)OCC)c1C` (centres undefined), the TGI in the experiment with RPMI-8226 leukemia was above 100 µM; in the experiment with HCC-2998 colon it was 47.8 µM; with 786-0 renal it was above 100 µM; with UACC-62 melanoma, above 100 µM; in the experiment with SN12C renal it was above 100 µM; in the experiment with SK-MEL-28 melanoma it was above 100 µM.

`Cc1cc(S(=O)(=O)Nc2nc(N)n(-c3ccccn3)n2)c(S)cc1Cl`: the total growth inhibition concentration (TGI) in the experiment on RPMI-8226 leukemia, with HCC-2998 colon, in the experiment on 786-0 renal, in the experiment on UACC-62 melanoma, with OVCAR-8 ovarian and in the experiment on SN12C renal was above 100 µM in each case. The compound further yielded a TGI in the experiment on SK-MEL-28 melanoma above 100 µM.

Turning to `Cc1ccc(/C(Cl)=C/C=C(C#N)C#N)cc1`, the TGI was found to be 3.77 µM with 786-0 renal; 15.7 µM in the experiment on UACC-62 melanoma; 8.67 µM in the experiment with OVCAR-8 ovarian; 17.4 µM in the experiment on SN12C renal; 5.12 µM in the experiment on SK-MEL-28 melanoma.

As to `COC(=O)CC(c1cn(S(=O)(=O)c2ccc(C)cc2)c2ccccc12)C1C[C@@H](C(=O)OC)N(C(=O)OC(C)(C)C)C1=O` (some centres undefined), the TGI in the experiment on RPMI-8226 leukemia was 35.4 µM; in the experiment on 786-0 renal, above 100 µM; in the experiment with UACC-62 melanoma, above 100 µM; in the experiment on OVCAR-8 ovarian, above 100 µM; in the experiment on SN12C renal it was above 100 µM; with SK-MEL-28 melanoma, above 100 µM.

Take `CCC(C)(C)C1CCC2c3c([nH]c4ccccc34)C3C(=O)N(c4ccc(OC)cc4)C(=O)C3C2C1` (centres undefined): the TGI was 40.5 µM with HCC-2998 colon; 25.9 µM in the experiment with 786-0 renal; above 100 µM with UACC-62 melanoma; 30.4 µM with OVCAR-8 ovarian; 6.67 µM with SN12C renal; above 100 µM in the experiment with SK-MEL-28 melanoma.

As for `Nc1cccnc1NCC1(CO)CCCC1`, the TGI in the experiment with RPMI-8226 leukemia, in the experiment on HCC-2998 colon, in the experiment on 786-0 renal, in the experiment with UACC-62 melanoma, with OVCAR-8 ovarian and in the experiment on SN12C renal was above 100 µM in each case. Further, the TGI in the experiment with SK-MEL-28 melanoma was above 100 µM.

Take `CC(CCC(=O)O)(c1ccc(O)cc1)c1ccc(O)cc1`: the TGI with 786-0 renal, in the experiment on UACC-62 melanoma, in the experiment with HOP-92 NSCLC, with OVCAR-8 ovarian, in the experiment with SN12C renal and in the experiment with SK-MEL-28 melanoma was above 100 µM throughout.

In the case of `CCOC(=O)c1c(NC(=O)c2cccs2)sc2c1CCC2`, the TGI in the experiment with RPMI-8226 leukemia, with 786-0 renal, with UACC-62 melanoma, in the experiment with OVCAR-8 ovarian and in the experiment on SN12C renal was above 100 µM throughout.

For `O=C1c2[nH]c3ccc(Br)cc3c2CCN1Cc1ccc(Cl)cc1`, the concentration for total growth inhibition (TGI) in the experiment on HCC-2998 colon worked out at 28.3 µM; in the experiment on 786-0 renal, 24.1 µM; in the experiment with UACC-62 melanoma, 28.2 µM; with HOP-92 NSCLC, 33.4 µM; in the experiment with OVCAR-8 ovarian, 48.5 µM; in the experiment on SN12C renal it was 39.9 µM. Also, the total growth inhibition concentration (TGI) with SK-MEL-28 melanoma worked out at 31.6 µM.
